Converted amounts (≈) assume the structure as drawn.
What was measured:
[1] = Serum binding determination by ultrafiltration and HPLC; type: in vitro ADME; details: % of compound bound to serum as determined by HPLC
Procedure: The more accurate measurement of binding of selected cephalosporin compounds was performed using HPLC as described below. […] Serum is placed in a shaking water bath preheated to 37 ± 2 °C for 5 to 10 minutes to heat serum to 37 °C. Serum pH is measured and recorded, while serum is 37 °C using pH paper. Measurements are taken twice, 3 minutes apart. If the pH is not 7.4 ± 0.4 then the pH is adjusted by blowing 5% CO2/95% O2 over the serum. After blowing for several minutes, serum is heated to 37 °C and measurements are taken twice, 3 minutes apart using pH paper to determine the pH. Store at 4 °C. The serum is stable for 7 days. Always check the pH before each use. • 2. Before any centrifugation, the centrifuge temperature must be adjusted to 25 ± 2 °C. Preheat the centrifuge by spinning for 45 minutes at the same speed to be used in the assay (1900 g) with two tubes of water in the rotor and the temperature set to 25 °C. When the centrifuge stops immediately check the temperature of the tubes of water with a calibrated thermometer. The temperature of the tubes of water must be 25 ± 2 °C. […] Continue spinning and measuring the temperature and adjusting the setting until the temperature is 25 ± 2 °C. • 3. Prepare blank ultrafiltrate by pipetting blank pH 7.4 serum into an Amicon Centrifree Micropartition devices, centrifuge: fixed angle rotor, 1900 g, 25 °C for 20 minutes. Heat ultrafiltrate in a shaking water bath preheated to 37 °C. Measure ultrafiltrate pH and adjust to the pH of the serum (7.4 ± 0.2). • 4. Pipette 190 ul of blank ultrafiltrate into a set of labeled 1.7 mL polypropylene microfuge tubes for 3 of each level. Pipette 10 µL of the appropriate standard stock 50, 200, 1000 µg/mL to make standards 2.5, 10, and 50 µg/mL respectively. Vortex each tube well. One set of the standard samples are mixed 1:1 with 0.2 M acetic acid and injected onto the HPLC (MSTD). These samples are the membrane standards and will be used to compare to the other standards. Pipette 190 ul of ultrafiltrate and spike with 10 ul of whatever solution (e.g. water) the standards are prepared in to make the zero standard. • 5. Pipette 475 µL of blank heated pH 7.4 serum into a set of labeled 1.7 mL polypropylene microfuge tubes for 2 of each (Serum A and Serum B). Pipette 25 µL of the 1000 µg/mL standard stock into each tube, vortex each tube well to make serum standard 50 µg/mL. Remove 100 µL of serum and deproteinate with 200 µL 4% TCA while vortexing to make serum time 0 (serum 50, T0). Place serum tubes in a shaking water bath at 37 °C for 10 minutes. Pipet 100 µL of serum out and deproteinate with 200 µL 4% TCA, to make serum time 10 min (serum 50, T10). Pipet 200 ul serum standard 50 µg/mL into an ultrafiltration device, which is not treated with TCA, to determine free drug in samples (Rat Serum 50). • 6. Transfer serum and standard samples to labeled Amicon Centrifree Micropartition filters, and centrifuge: 1900 g, 25 °C for 10 minutes. The extracted serum samples (T0 and T 10) are spun down and supernatant is loaded into HPLC vials. • 7. 100 µL of ultrafiltrate sample and 100 µL of 0.2 M acetic acid were mixed together to stabilize the compound in ultrafiltrate. • 8. Transfer entire stabilized ultrafiltrate solution to a labeled autoinjector HPLC vial cap with Teflon septa, and inject on HPLC.
Peak height or area is used in a weighted linear regression.

[2] = system: S. aureus PC1 (Meth^S)(lac^+); experiment: Broth microdilution MIC (NCCLS); type: cell-based; details: Staphylococcus aureus; S. aureus PC1 (Meth^S)(lac^+); Mueller-Hinton Broth, 24 h at 35 °C; read-out: MIC
Procedure: (§1) Compounds were evaluated for antimicrobial activity against a panel of bacterial strains using a broth microdilution assay performed as recommended by the NCCLS (1). The minimum inhibitory concentration (MIC) was defined as the lowest concentration of drug which prevented the growth of the bacteria. The following 16 organisms constituted the primary panel of evaluation:
(§2) For this primary panel, the assay was performed in Mueller-Hinton Broth (MHB) with a final bacterial inoculum of 5 x 10^5 CFU/mL (from an early-log phase culture) and a final volume of 100 µL. Control drugs, including imipenem, vancomycin, Penicillin G, dicloxacillin (vs. MSSA ATCC29213 only), and new compounds were prepared at a concentration equivalent to 2-fold the desired final concentration. Dilution of compounds were prepared directly in the plates by serial 2-fold dilution using a multichannel pipette. Positive and negative growth control were included in each plate.
(§3) The bacterial inocula were prepared as follows. For each strain one isolated colony was used to inoculate a volume of 8 mL of Mueller-Hinton broth and these cultures were incubated overnight (20h) at 35 °C in a shaking incubator. At the exception of Enterococcus strains, culture were then diluted 1:10 and allowed to grow for an additional one hour at 35 °C in a shaking incubator. The inocula were prepared by diluting the early log-phase (1h) cultures 1:1000 with fresh Mueller-Hinton broth. E. faecium and E. faecalis were prepared by diluting overnight cultures 1:333 and 1:666, respectively, with fresh Mueller-Hinton broth . A volume of 50 µL of the inocula was added to each well. […] The exact inocula were determined by applying […] of 10-fold serial dilution of the bacterial suspensions on TSA. After overnight incubation at 35 °C, colony forming units were manually counted.
(§4) Microtiter plates were incubated during 24 h at 35 °C and were read using a microtiterplate reader (Molecular Devices) at 650 nm as well as by visual observation using a microtiterplate reading mirror.

[3] = system: S. aureus Col8A(Meth^S)(lac^-); experiment: Broth microdilution MIC (NCCLS); type: cell-based; details: Staphylococcus aureus, Mueller-Hinton Broth, 24 h at 35 °C
Procedure: as §1, §2, §3, §4

Row | SMILES | fraction unbound ([1]; rat serum) | fraction unbound ([1]; rhesus monkey) | MIC [2] [µg/mL] | MIC [3] [µg/mL]
1 | NCCSCc1ncccc1SC1=C(C(=O)O)N2C(=O)[C@@H](NC(=O)/C(=N\O)c3nc(N)sc3Cl)[C@H]2SC1 [Cmpd 1, (7R)-7-[(Z)-2-(2-amino-5-chlorothiazol-4-yl)-2-(hydroxyimino)acetamido]-3-[2-(2-aminoethylthiomethyl)pyrid-3-ylthio]-3-cephem-4-carboxylic acid] | 0.15 |  |  | 
2 | NCCSCc1ncccc1SC1=C(C(=O)O)N2C(=O)[C@@H](NC(=O)/C(=N\O)c3nsc(N)n3)[C@H]2SC1 [Cmpd 2, (7R)-7-[(Z)-2-(5-amino-1,2,4-thiadiazol-3-yl)-2-(hydroxyimino)acetamido]-3-[2-(2-aminoethylthiomethyl)pyrid-3-ylthio]-3-cephem-4-carboxylic acid] | 0.26 | 0.19 |  | 
3 | N=C(N)NCCSCc1ncccc1SC1=C(C(=O)O)N2C(=O)[C@@H](NC(=O)/C(=N\O)c3nsc(N)n3)[C@H]2SC1 [Cmpd 2-R, (7R)-7-[(Z)-2-(5-amino-1,2,4-thiadiazol-3-yl)-2-(hydroxyimino)acetamido]-3-[2-(2-guanidinoethylthiomethyl)pyrid-3-ylthio]-3-cephem-4-carboxylic acid] |  |  | 0.13 (≈ 0.213 µM) | 0.25 (≈ 0.409 µM)
4 | N=C(N)NCCSCc1ncccc1SC1=C(C(=O)O)N2C(=O)[C@@H](NC(=O)/C(=N\O)c3nc(N)sc3Cl)[C@H]2SC1 [Cmpd 2-S, (7R)-7-[(Z)-2-(2-amino-5-chlorothiazol-4-yl)-2-(hydroxyimino)acetamido]-3-[2-(2-guanidinoethylthiomethyl)pyrid-3-ylthio]-3-cephem-4-carboxylic acid] | 0.24 | 0.12 | 0.13 (≈ 0.202 µM) | 0.125 (≈ 0.194 µM)
5 | NCCSCc1ccncc1SC1=C(C(=O)O)N2C(=O)[C@@H](NC(=O)/C(=N\O)c3nc(N)sc3Cl)[C@H]2SC1 [Cmpd 3, (7R)-7-[(Z)-2-(2-amino-5-chlorothiazol-4-yl)-2-(hydroxyimino)acetamido]-3-[4-(2-aminoethylthiomethyl)pyrid-3-ylthio]-3-cephem-4-carboxylic acid] | 0.03 | 0.03 |  | 
